This note sets out measurements from patent US9233965B2, “3,4-dihydropyrrolo[1,2-A]pyrazine-2,8(1H)-dicarboxamide derivatives, preparation thereof and therapeutic use thereof for diseases involving casein kinase 1 epsilon and/or casein kinase 1 delta” (SANOFI, priority 2010, dated 2016).

The structures appear in SMILES notation.

Usually melting point stands for the temperature, or range, at which the solid turns liquid. The term IC50 denotes the concentration that inhibits the measured activity by half. A lower IC50 goes with inhibition by little substance.

Series [1] deals with casein kinase 1 epsilon (CK1 epsilon) (Homo sapiens (Human), UniProt P49674). The experiment in a line: Test A: inhibitory activity on CK1 epsilon, casein phosphorylation assay on ATP-33P filter plate. Format: biochemical. The settings on record: IC50 values or IC50 ranges (result of several experiments), ATP 10 μM final. The procedure:
The capacity of the compounds of the invention to inhibit the phosphorylation of casein by casein kinase 1 epsilon and/or delta may be evaluated according to the procedures described in document US 2005/0 131 012.
Test A: Inhibitory Activity on CK1 Epsilon Measured by Assay on an ATP-^33P Filter Plate
The effect of the compounds on inhibition of the phosphorylation of casein by the enzyme casein kinase 1 epsilon (CK1 epsilon) is measured, using a casein assay via filtration of ATP-^33P in vitro.
Casein kinase 1 epsilon (0.58 mg/ml) is obtained via fermentation and purification processes performed according to methods that are well known to those skilled in the art, or may also be obtained from Invitrogen Corporation™ (human CK1 epsilon).
The compounds are tested at five different concentrations so as to generate IC50 values, i.e. the concentration at which a compound is capable of inhibiting the enzymatic activity by 50%, or alternatively the percentage of inhibition at a concentration of 10 micromolar.
“U”-bottomed Falcon plates are prepared by placing 5 μL of solutions of the compounds according to the invention at concentrations of 10, 1, 0.1, 0.01 or 0.001 μM in different wells. The solutions of the compounds according to the invention at these various concentrations are prepared by diluting in a test buffer (Tris 50 mM pH 7.5, MgCl2 […], DTT 2 mM and EGTA 1 mM) a stock solution in DMSO at a concentration of 10 mM. Next, 5 μL of dephosphorylated casein are added to a final concentration of 0.2 μg/μL, 20 μL of CK1 epsilon to a final concentration of 3 ng/μL, and 20 μL of ATP-^33P to a final concentration of 0.02 μCi/μL mixed with cold ATP (10 μM final—approximately 2×10^6 CPM per well). The final total test volume per well is equal to 50 μL.
The “U”-bottomed Falcon® test plate mentioned above is vortexed, and then incubated at room temperature for 2 hours. After 2 hours the reaction is stopped by adding an ice-cold solution of 65 μL of cold ATP (2 mM) prepared in test buffer.
100 μL of the reaction mixture are then transferred from the “U”-bottomed Falcon® plate into Millipore® MAPH filter plates, preimpregnated with 25 μL of ice-cold 100% TCA.
The Millipore MAPH filter plates are agitated gently and are left to stand at room temperature for at least 30 minutes to precipitate the proteins.
After 30 minutes, the filter plates are sequentially washed and filtered with 2×150 μL of 20% TCA, 2×150 μL of 10% TCA and 2×150 μL of 5% TCA (6 washes in total per plate/900 μL per well).
The plates are left to dry overnight at room temperature. Next, 40 μL of Microscint-20 Packard® scintillation liquid are added per well and the plates are closed in a leaktight manner. The radiation emitted by each well is then measured for 2 minutes in a TopCount NXT Packard® scintillation counter, in which the values of CPM/well are measured.
The percentage inhibition of the capacity of the enzyme to phosphorylate the substrate (casein) is determined for each concentration of test compound. These inhibition data expressed as percentages are used to calculate the IC50 value for each compound compared with the controls.
The kinetic studies determined the KM value for ATP as being 21 μM in this test system.
Table 2 below gives the IC50 values or the IC50 inhibition ranges (result of several experiments) for the phosphorylation of Casein Kinase 1 Epsilon for a number of compounds according to the invention.

casein kinase 1 epsilon (CK1 epsilon), sequence (P49674 whole entry): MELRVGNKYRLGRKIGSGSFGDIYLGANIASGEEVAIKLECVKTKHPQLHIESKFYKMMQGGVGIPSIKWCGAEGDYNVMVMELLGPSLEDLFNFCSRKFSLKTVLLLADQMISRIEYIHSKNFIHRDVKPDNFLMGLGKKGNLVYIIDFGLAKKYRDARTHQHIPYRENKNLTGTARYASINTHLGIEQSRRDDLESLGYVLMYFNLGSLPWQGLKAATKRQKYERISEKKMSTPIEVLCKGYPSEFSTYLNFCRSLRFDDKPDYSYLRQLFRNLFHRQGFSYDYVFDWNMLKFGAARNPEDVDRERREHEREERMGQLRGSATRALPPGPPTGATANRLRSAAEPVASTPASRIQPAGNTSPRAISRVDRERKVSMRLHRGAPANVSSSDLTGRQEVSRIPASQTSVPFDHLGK

`COc1ccc(-c2c(C(N)=O)c3n(c2C2CC2)CCN(C(=O)NC2(C4CC4)CC2)C3)cc1` [Compound 51, N^2-[1,1′-bi(cyclo-propyl)-1-yl]-6-cyclo-propyl-7-(4-methoxyphenyl)-3,4-dihydropyrrolo[1,2-a]pyrazine-2,8(1H)-dicarboxamide] gave a melting point of 175 to 177 °C. In addition, in series [1], the midpoint of inhibition, the IC50, lay at 40 nM.
For `NC(=O)c1c(-c2cccc(F)c2)c(Cl)n2c1CN(C(=O)NCC1(CO)CC1)CC2` [Compound 75, 6-chloro-7-(3-fluorophenyl)-N^2-{[1-(hydroxymethyl)cyclo-propyl]methyl}-3,4-dihydropyrrolo[1,2-a]pyrazine-2,8(1H)-dicarboxamide] the same measures were 204 to 206 °C and 4 to 5 nM.
Turning to `N#Cc1cccc(-c2c(C(N)=O)c3n(c2Cl)CCN(C(=O)NC2CCOCC2)C3)c1` [Compound 95, 6-chloro-7-(3-cyanophenyl)-N^2-(tetrahydro-2H-pyran-4-yl)-3,4-dihydropyrrolo[1,2-a]pyrazine-2,8(1H)-dicarboxamide], the melting point lay within 236 to 238 °C. In series [1], this molecule had an IC50 of 6 nM.
In the same order, the values of `C[C@H](NC(=O)N1CCn2c(Cl)c(-c3cccc(F)c3)c(C(N)=O)c2C1)C(F)(F)F` [Compound 78, 6-chloro-7-(3-fluorophenyl)-N^2-[(2S)-1,1,1-trifluoropropan-2-yl]-3,4-dihydropyrrolo[1,2-a]pyrazine-2,8(1H)-dicarboxamide] are 190 to 193 °C and 3 nM.
For `C[C@H](NC(=O)N1CCn2c(C#N)c(-c3cccc(F)c3)c(C(N)=O)c2C1)C(F)(F)F` [Compound 106, 6-cyano-7-(3-fluorophenyl)-N^2-((2S)-1,1,1-trifluoropropan-2-yl)-3,4-dihydropyrrolo[1,2-a]pyrazine-2,8(1H)-dicarboxamide] the same measures were 176 to 178 °C and 2 nM.
In the same order, the values of `NC(=O)c1c(-c2cccc(F)c2)c(Cl)n2c1CN(C(=O)NCC(F)(F)F)CC2` [Compound 77, 6-chloro-7-(3-fluorophenyl)-N^2-(2,2,2-trifluoroethyl)-3,4-dihydropyrrolo[1,2-a]pyrazine-2,8(1H)-dicarboxamide] are 208 to 213 °C and 2 to 8 nM.
`NC(=O)c1c(-c2cccc(F)c2)c(Cl)n2c1CN(C(=O)N[C@H]1CC[C@H](O)CC1)CC2` [Compound 83, trans-6-chloro-7-(3-fluorophenyl)-N^2-(4-hydroxy-cyclo-hexyl)-3,4-dihydropyrrolo[1,2-a]pyrazine-2,8(1H)-dicarboxamide] displayed a melting point of 251 to 253 °C. In addition, in series [1], the IC50 was 2 to 4 nM.
`CC(C)(C)NC(=O)N1CCn2c(c(C(N)=O)c(-c3cccc(OCc4ccccc4)c3)c2C2CC2)C1` [Compound 34, 7-[3-(benzyloxy)phenyl]-N^2-tert-butyl-6-cyclo-propyl-3,4-dihydropyrrolo[1,2-a]pyrazine-2,8(1H)-dicarboxamide]: the melting point lay within 156 to 158 °C. Besides, the IC50 in series [1] came to 315 nM.
In the same order, the values of `CC(C)(NC(=O)N1CCn2c(C#N)c(-c3cccc(F)c3)c(C(N)=O)c2C1)C(F)(F)F` [Compound 107, 6-cyano-7-(3-fluorophenyl)-N^2-(1,1,1-trifluoro-2-methylpropan-2-yl)-3,4-dihydropyrrolo[1,2-a]pyrazine-2,8(1H)-dicarboxamide] are 202 to 204 °C and < 1 nM.
In turn, `COc1ccc(-c2c(C(N)=O)c3n(c2Cl)CCN(C(=O)NC(C)(C)C)C3)cc1` [Compound 64, N^2-tert-butyl-6-chloro-7-(4-methoxyphenyl)-3,4-dihydropyrrolo[1,2-a]pyrazine-2,8(1H)-dicarboxamide] came in with a melting point of 168 to 170 °C. In addition, the IC50 in series [1] was in the range of 1 to 5 nM.
For `CC(C)(CO)CNC(=O)N1CCn2c(Cl)c(-c3cccc(C(F)(F)F)c3)c(C(N)=O)c2C1` [Compound 74, 6-chloro-N^2-(3-hydroxy-2,2-dimethylpropyl)-7-(3-trifluoromethyl-phenyl)-3,4-dihydropyrrolo[1,2-a]pyrazine-2,8(1H)-dicarboxamide] the same measures were 185 to 187 °C and 6 nM.
`COc1ccc(-c2c(C(N)=O)c3n(c2C2CC2)CCN(C(=O)NC(C)(C)C)C3)cc1` [Compound 36, N^2-tert-butyl-6-cyclo-propyl-7-[4-(methoxy)phenyl]-3,4-dihydropyrrolo[1,2-a]pyrazine-2,8(1H)-dicarboxamide] came in with a melting point of 177 to 179 °C. In series [1], this molecule registered an IC50 of 46 to 75 nM.
For `CC(C)(C)NC(=O)N1CCn2c(c(C(N)=O)c(-c3ccc(F)cc3)c2C2CC2)C1` [Compound 47, N^2-tert-butyl-6-cyclo-propyl-7-(4-fluorophenyl)-3,4-dihydropyrrolo[1,2-a]pyrazine-2,8(1H)-dicarboxamide] the same measures were 220 to 223 °C and 45 to 146 nM.
For `CC(C)(C)NC(=O)N1CCn2c(F)c(-c3ccccc3)c(C(N)=O)c2C1` [Compound 58, N^2-tert-butyl-6-fluoro-7-phenyl-3,4-dihydropyrrolo[1,2-a]pyrazine-2,8(1H)-dicarboxamide] the same measures were 213 to 215 °C and 5 to 28 nM.
`CC(C)(C)NC(=O)N1CCn2c(c(C(N)=O)c(-c3cccc(C(F)(F)F)c3)c2C2CC2)C1` [Compound 16, N^2-tert-butyl-6-cyclo-propyl-7-[3-(trifluoromethyl)phenyl]-3,4-dihydropyrrolo[1,2-a]pyrazine-2,8(1H)-dicarboxamide]: the IC50 in series [1] was 19 to 57 nM.
As for `CC(C)(C)NC(=O)N1CCn2c(c(C(N)=O)c(-c3ccc(C(=O)NC4CC4)cc3)c2C2CC2)C1` [Compound 18, N^2-tert-butyl-6-cyclo-propyl-7-[4-(cyclo-propylcarbamoyl)phenyl]-3,4-dihydropyrrolo[1,2-a]pyrazine-2,8(1H)-dicarboxamide], inhibition in series [1] was half-maximal at 963 nM (IC50).
As for `CN(C)C(=O)c1cccc(-c2c(C(N)=O)c3n(c2C2CC2)CCN(C(=O)NC(C)(C)C)C3)c1` [Compound 17, N^2-tert-butyl-6-cyclo-propyl-7-[3-(dimethylcarbamoyl)phenyl]-3,4-dihydropyrrolo[1,2-a]pyrazine-2,8(1H)-dicarboxamide], inhibition in series [1] was half-maximal at 958 nM (IC50).
For the molecule `C[C@@H]1CC(NC(=O)N2CCn3c(Cl)c(-c4cccc(F)c4)c(C(N)=O)c3C2)C[C@H](C)O1` (stereo partly drawn) [Compound 100, cis-6-chloro-N^2-(2,6-dimethyl-tetrahydro-2H-pyran-4-yl)-7-(3-fluorophenyl)-3,4-dihydropyrrolo[1,2-a]pyrazine-2,8(1H)-dicarboxamide], the IC50 in series [1] is > 1 nM.
Same read-out and setting: as for `CC(C)NC(=O)N1CCn2c(c(C(N)=O)c(-c3ccccc3)c2C2CC2)C1` [Compound 7, 6-cyclo-propyl-7-phenyl-N^2-(iso-propyl)-3,4-dihydropyrrolo[1,2-a]pyrazine-2,8(1H)-dicarboxamide], the figure is 42 nM; as for `COc1ccc(-c2c(C(N)=O)c3n(c2C2CC2)CCN(C(=O)NC(C)C)C3)cc1` [Compound 8, 6-cyclo-propyl-7-(4-methoxyphenyl)-N^2-(iso-propyl)-3,4-dihydropyrrolo[1,2-a]pyrazine-2,8(1H)-dicarboxamide], 221 to 273 nM.
Same read-out and setting: as for `Cc1cccc(-c2c(C(N)=O)c3n(c2C2CC2)CCN(C(=O)NC(C)(C)C)C3)c1` [Compound 11, N^2-tert-butyl-6-cyclo-propyl-7-(3-methylphenyl)-3,4-dihydropyrrolo[1,2-a]pyrazine-2,8(1H)-dicarboxamide], the figure is 3 to 6 nM.
The same measure, in the same setting: the figure for `CC(C)(C)NC(=O)N1CCn2cc(-c3ccccc3)c(C(N)=O)c2C1` [Compound 1, N^2-tert-butyl-7-phenyl-3,4-dihydropyrrolo[1,2-a]pyrazine-2,8(1H)-dicarboxamide] is 12 to 35 nM.
